# Data reported in US9567291B2, “N-(4-(bis(4-(dimethylamino)phenyl)methylene)-8-(dimethylamino)” (EMORY UNIVERSITY, priority 2013, dated 2017).
# “Also recorded” adds a separate entry of the source.
# Columns and labels:
# Type in all cases: cell-based
# LM36 cells = assay: cell proliferation assay, LM36 cells; conditions: 24 h treatment
# Method: (§1) FIG. 1 illustrates the cell proliferation assay procedure. 5×10^4 cells were seeded in 24-well plates and incubated for 24 h. Stock solutions of PSB, PSMB, and IB were diluted into 5 mL of appropriate media samples for each treatment concentration (1 μM, 2.5 μM, etc). One mL was then added to each of the four wells per treatment concentration. Cells were incubated for 24 h in standard conditions. Cells were then washed with Phosphate Buffered Saline (Sigma Aldrich) and harvested by trypsinization (0.5 mL/well). Cells were incubated for 10 minutes in standard conditions and diluted into a 10 mL isotone solution. The isotone solution was subsequently placed into a cell counter, providing a count that represented 1/20 the number of cells per well.
# (§2) A375 cells were grown in high-glucose Dulbecco's modified Eagle's medium (DMEM) (Mediatech) supplemented with fetal bovine serum (FBS) and penicillin/streptomycin (Sigma-Aldrich) in standard conditions (37° C., 5% CO2, humidified atmosphere). LM36 and LM36R cells were grown in cultured in RPMI medium supplemented with 10% FBS, L-glutamine and antibiotics in standard conditions (37° C., 5% CO2, humidified atmosphere).
# LM36R cells = assay: cell proliferation assay, LM36R cells; conditions: 24 h treatment
# Method: as §1, §2
# A375 cells = assay: cell proliferation assay, A375 cells; conditions: 24 h treatment; for inhibition of cell proliferation: cell count, FIG. 4A/5A
# Method: as §1, §2
Substance,antiproliferative potency compared to IB (LM36 cells),"inhibition of cell proliferation (LM36 cells; cell count, FIG. 4C/5C)",antiproliferative potency compared to IB (LM36R cells),"inhibition of cell proliferation (LM36R cells; cell count, FIG. 4B/5B)",antiproliferative potency compared to IB (A375 cells),inhibition of cell proliferation (A375 cells)
N-(4-(bis(4-(dimethylamino)phenyl)methylene)-8-(dimethylamino)naphthalen-1(4H)-ylidene)-N-methylmethanaminium [PSMB],greater antiproliferative effects than IB; also recorded: more potent inhibition than IB,anti-proliferative effects that operate in a concentration-dependent fashion,greater antiproliferative effects than IB; also recorded: more potent inhibition than IB,anti-proliferative effects that operate in a concentration-dependent fashion,greater antiproliferative effects than IB; also recorded: more potent inhibition than IB,anti-proliferative effects that operate in a concentration-dependent fashion
N-(4-(bis(4-(diethylamino)phenyl)methylene)-8-(dimethylamino) naphthalen-1(4H)-ylidene)-N-methylmethanaminium [PSB],Such a trend is not observed,,Such a trend is not observed,,only exhibits greater antiproliferative effects in A375 cells; also recorded: more potent than IB,inhibits A375 proliferation in a concentration-dependent fashion
